From US20200093821A1, “Pharmaceutical Compositions of a Benzothiophene Compound” (Hexal AG, priority 2016, published 2020)

Legend:
[1] = UV irradiation of suspensions in oils, HPLC analysis; assay type: physicochemical; details: irradiated 4 hours; for Brexpiprazole (area) / Compound I (area) / Compound II (area): HPLC
Experimental: [table] Suspensions of brexpiprazole anhydrate or brexpiprazole dihydrate (about 10 mg per experiment) in different oils (about 105 mg per suspension) were prepared and irradiated for 4 hours.

[2] = UV exposure of solid brexpiprazole forms (Atlas Suntester XLS+); assay type: physicochemical; details: 60 h Suntester
Text: Brexpiprazole anhydrate and brexpiprazole dihydrate were respectively exposed to UV-radiation using an appropriate illumination device (Atlas Suntester XLS+) at 250 W/m^2 for 60 hrs, which corresponds to a total UV light intensity of […].

[3] = UV lamp irradiation of brexpiprazole solution in toluene/methanol; assay type: physicochemical
Experimental: For the structure determination of the compound of formula II in Example 2 it was therefore necessary to produce larger quantities of that compound. […] The suspension was heated to 50° C. After stirring for 10 minutes, a clear solution was obtained. The solution was put into a transparent glass vial and irradiated for 18 h by a UV lamp (UVHQ 250 Z by “UV Technik Speziallampen”; radiation strength UVC/UVB/UVA: 38 W at 200 nm-280 nm; 20 W at 280 nm-315 nm; 18 W at 315 nm-400 nm). A light brown, clear solution was obtained. A mixture of brexpiprazole and compound II was obtained (19:81 area %).

[4] = target: T1, serotonin 5-HT1A receptors (Homo sapiens, UniProt P08908); details: cited from earlier work
T1 sequence (P08908 1-422): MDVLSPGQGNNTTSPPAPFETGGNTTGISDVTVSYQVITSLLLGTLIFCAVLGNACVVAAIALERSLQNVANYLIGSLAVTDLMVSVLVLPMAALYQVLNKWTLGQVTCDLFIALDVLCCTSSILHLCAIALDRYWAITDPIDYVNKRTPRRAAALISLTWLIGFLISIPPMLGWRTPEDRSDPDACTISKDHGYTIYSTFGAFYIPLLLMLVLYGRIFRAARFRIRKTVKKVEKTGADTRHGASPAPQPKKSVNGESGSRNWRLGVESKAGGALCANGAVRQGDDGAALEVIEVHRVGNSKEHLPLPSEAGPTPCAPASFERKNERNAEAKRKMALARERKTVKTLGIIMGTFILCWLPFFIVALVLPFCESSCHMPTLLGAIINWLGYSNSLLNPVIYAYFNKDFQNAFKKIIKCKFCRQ

[5] = target: dopamine D2 receptors (Homo sapiens, UniProt P14416); details: cited from earlier work
Chain of dopamine D2 receptors (P14416 whole entry): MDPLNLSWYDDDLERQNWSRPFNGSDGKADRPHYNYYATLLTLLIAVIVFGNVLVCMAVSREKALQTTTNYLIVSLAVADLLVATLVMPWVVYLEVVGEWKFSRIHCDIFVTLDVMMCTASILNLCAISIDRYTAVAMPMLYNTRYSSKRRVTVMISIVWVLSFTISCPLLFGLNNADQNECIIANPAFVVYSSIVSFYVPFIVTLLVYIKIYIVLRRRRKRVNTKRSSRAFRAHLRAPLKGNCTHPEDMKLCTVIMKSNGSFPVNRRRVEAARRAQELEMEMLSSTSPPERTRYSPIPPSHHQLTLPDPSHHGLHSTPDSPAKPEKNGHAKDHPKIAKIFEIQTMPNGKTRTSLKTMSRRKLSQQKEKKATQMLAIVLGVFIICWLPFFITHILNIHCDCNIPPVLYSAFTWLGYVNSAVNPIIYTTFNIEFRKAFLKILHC

[6] = target: serotonin 5-HT2A receptors (Homo sapiens, UniProt P28223); details: cited from earlier work
Chain of serotonin 5-HT2A receptors (P28223 whole entry): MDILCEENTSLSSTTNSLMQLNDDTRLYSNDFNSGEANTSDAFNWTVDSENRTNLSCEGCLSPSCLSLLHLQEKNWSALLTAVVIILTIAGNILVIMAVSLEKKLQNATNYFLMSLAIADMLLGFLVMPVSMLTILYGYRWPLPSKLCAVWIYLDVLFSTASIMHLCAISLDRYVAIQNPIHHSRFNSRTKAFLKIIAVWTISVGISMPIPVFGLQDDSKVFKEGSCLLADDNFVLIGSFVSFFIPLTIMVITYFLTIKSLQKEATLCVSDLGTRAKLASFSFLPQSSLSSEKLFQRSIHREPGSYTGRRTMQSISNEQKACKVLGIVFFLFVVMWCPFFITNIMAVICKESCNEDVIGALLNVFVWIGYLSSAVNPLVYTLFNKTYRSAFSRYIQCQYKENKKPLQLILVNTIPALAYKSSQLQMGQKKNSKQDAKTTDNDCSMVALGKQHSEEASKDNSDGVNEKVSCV

[7] = suspension in castor oil, listed as Brx. Anhydrate
[8] = suspension in peanut oil, listed as Brx. Anhydrate
[9] = suspension in castor oil, listed as Brx. Dihydrate
[10] = suspension in peanut oil, listed as Brx. Dihydrate
[11] = toluene/methanol solution, UV lamp 18 h

Compound: O=c1ccc2ccc(OCCCCN3CCN(c4cccc5sccc45)CC3)cc2[nH]1 [Brexpiprazole Anhydrate]
- Brexpiprazole (area) [1, 7]: 99.6%
- Compound I (area) [1, 7]: 0.0%
- Compound II (area) [1, 7]: 0.4%
- Brexpiprazole (area) ([1]; suspension in corn oil): 99.8%
- Compound I (area) ([1]; suspension in corn oil): 0.0%
- Compound II (area) ([1]; suspension in corn oil): 0.2%
- Brexpiprazole (area) [1, 8]: 99.8%
- Compound I (area) [1, 8]: 0.0%
- Compound II (area) [1, 8]: 0.2%

Compound: O=c1ccc2ccc(OCCCCN3CCN(c4cccc5sccc45)CC3)cc2[nH]1 [Brexpiprazole Dihydrate]
- sensitivity to UV-induced dimerization vs anhydrate form [2]: significantly more sensitive
- sensitivity to UV-induced dimerization vs brexpiprazole anhydrate ([1]; oil suspensions): more sensitive
- Brexpiprazole (area) [1, 9]: 61.7%
- Compound I (area) [1, 9]: 35.1%
- Compound II (area) [1, 9]: 3.2%
- Brexpiprazole (area) ([1]; suspension in corn oil): 64.9%
- Compound I (area) ([1]; suspension in corn oil): 32.2%
- Compound II (area) ([1]; suspension in corn oil): 3.0%
- Brexpiprazole (area) [1, 10]: 64.3%
- Compound I (area) [1, 10]: 32.4%
- Compound II (area) [1, 10]: 3.3%

Compound: O=c1ccc2ccc(OCCCCN3CCN(c4cccc5sccc45)CC3)cc2[nH]1 [Brexpiprazole, 7-[4-[4-(1-Benzothiophen-4-yl)piperazin-1-yl]butoxy]quinolin-2(1H)-one]
- sensitivity to UV-radiation vs brexpiprazole anhydrate ([3]; brexpiprazole in solution): significantly more sensitive
- stability in control experiment ([3]; solution protected from UV light, vial wrapped in aluminum foil): remained stable
- brexpiprazole remaining in mixture [3, 11]: 19 area %
- compound II formed in mixture [3, 11]: 81 area %
- activity at serotonin 5-HT1A receptors [4]: partial agonist activity
- activity at dopamine D2 receptors [5]: partial agonist activity
- activity at serotonin 5-HT2A receptors [6]: antagonist activity
